Measured values as given in patent US8679824B2, “Fermentation broth formulations” (Danisco US Inc., priority 2009, dated 2014).

Test system: Trichoderma reesei
Experiment: T. reesei cell kill, CFU count on PDA plates
Format: cell-based
Conditions: pH 4, 24 hours, 40° C.
Experimental: Sodium benzoate was added to separate T. reesei aliquots to a final concentration of 2.5 g/L sodium benzoate or 5 g/L sodium benzoate. The aliquots were then adjusted to pH 4 and incubated for 24 hours at 40° C. After 24 hours of incubation all aliquots were pH adjusted to 4.8 using 10% (w/w) sodium hydroxide. Each aliquot was then serially diluted with sterile water, spread plated onto PDA, and incubated at 25° C. The incubated PDA plates were then counted for CFU.
The aliquots were then adjusted to pH 4 and incubated for 24 hours at 40° C. After 24 hours of incubation all aliquots were pH adjusted to 4.8 using 10% (w/w) sodium hydroxide. Each aliquot was then serially diluted with sterile water, spread plated onto PDA, and incubated at 25° C. The incubated PDA plates were then counted for CFU.

## O=C([O-])c1ccccc1.[Na+] [sodium benzoate]
2.5 g/L sodium benzoate
  log reduction of viable cells: 5 log
5 g/L sodium benzoate
  CFU present after incubation: less than 10 CFU
  log reduction of viable cells: 7 log
